In ChEMBL document CHEMBL1201862, “PubChem BioAssay data set” (2004):
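All cell lines were grown in 96-well plates and treated with compound for 48 hours. GI50: concentration for 50% inhibition of growth.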 Activity calls are given as the source filed them. Rule as the data show it: active = GI50 up to about 1.1 µM and inactive = higher.

Tests used:
Experiment in all cases: NCI-60 cell line screen, 48 h
KM12 = tested on: KM12
SW-620 = tested on: SW-620
K562 = tested on: K562
TK-10 = tested on: TK-10
UACC-257 = tested on: UACC-257
U-251 = tested on: U-251
HOP-62 = tested on: HOP-62
A498 = tested on: A498
HT-29 = tested on: HT-29
OVCAR-3 = tested on: OVCAR-3
SF-539 = tested on: SF-539
SF-268 = tested on: SF-268
MDA-MB-231 = tested on: MDA-MB-231
SNB-19 = tested on: SNB-19
SF-295 = tested on: SF-295
CCRF-CEM = tested on: CCRF-CEM
HCT-15 = tested on: HCT-15
MDA-MB-435 = tested on: MDA-MB-435
HOP-92 = tested on: HOP-92

Row | Structure (SMILES) | GI50 (KM12) | GI50 (SW-620) | GI50 (K562) | GI50 (TK-10) | GI50 (UACC-257) | GI50 (U-251) | GI50 (HOP-62) | GI50 (A498) | GI50 (HT-29) | GI50 (OVCAR-3) | GI50 (SF-539) | GI50 (SF-268) | GI50 (MDA-MB-231) | GI50 (SNB-19) | GI50 (SF-295) | GI50 (CCRF-CEM) | GI50 (HCT-15) [µM] | GI50 (MDA-MB-435) | GI50 (HOP-92)
1 | CCN(CC)C1Oc2cc3c(cc2C(c2cccc(OC)c2O)C1C)OCO3 (stereo unspecified) | 4.1 µM (inactive) | 4.33 µM (inactive) | 3.75 µM (inactive) | 16.4 µM (inactive) | 7.6 µM (inactive) | 3.69 µM (inactive) | 5.28 µM (inactive) | 2.36 µM (inactive) | 4.16 µM (inactive) | 1.94 µM (inactive) | 2.54 µM (inactive) | 6.62 µM (inactive) | 10.5 µM (inactive) | 3.76 µM (inactive) | 3.08 µM (inactive) | 3.94 µM (inactive) | 4.79 | 1.74 µM (inactive) | 
2 | CN(CCc1ccccn1)C(=S)N/N=C(\c1ccccc1)c1ccccn1 | 0.0194 µM (active) | < 0.01 µM (active) | < 0.01 µM (active) | 0.524 µM (active) | < 0.01 µM (active) | 0.0101 µM (active) | < 0.0215 µM (active) | < 0.01 µM (active) | < 0.01 µM (active) | < 0.01 µM (active) |  |  |  | 0.215 µM (active) | < 0.0266 µM (active) | < 0.01 µM (active) | < 0.01 | 0.573 µM (active) | 1.73 µM (inactive)
3 | c1ccc(CCNc2ccccn2)nc1 | > 100 µM (inactive) | > 100 µM (inactive) |  | > 100 µM (inactive) | > 100 µM (inactive) | > 100 µM (inactive) | > 100 µM (inactive) | > 100 µM (inactive) | > 100 µM (inactive) | > 100 µM (inactive) |  | > 100 µM (inactive) | > 100 µM (inactive) | > 100 µM (inactive) | > 100 µM (inactive) | > 100 µM (inactive) | > 100 | > 100 µM (inactive) | > 100 µM (inactive)
4 | CSc1cc(Cl)c(C)cc1S(=O)(=O)NC(=O)NNc1cnc2ccccc2n1 | > 100 µM (inactive) | > 100 µM (inactive) | > 100 µM (inactive) |  |  | > 100 µM (inactive) | > 100 µM (inactive) | > 100 µM (inactive) | > 100 µM (inactive) | > 100 µM (inactive) | > 100 µM (inactive) | > 100 µM (inactive) | > 100 µM (inactive) | > 100 µM (inactive) | > 100 µM (inactive) | > 100 µM (inactive) | > 100 | > 100 µM (inactive) | 
5 | O=C1c2ccccc2-c2c1c(-c1cccc(Br)c1)nc1ccc3ccccc3c21 | > 100 µM (inactive) | > 100 µM (inactive) | > 100 µM (inactive) |  | > 100 µM (inactive) | > 100 µM (inactive) | > 100 µM (inactive) | > 100 µM (inactive) | > 100 µM (inactive) | > 100 µM (inactive) | > 100 µM (inactive) | > 100 µM (inactive) | > 100 µM (inactive) | > 100 µM (inactive) | > 100 µM (inactive) | > 100 µM (inactive) | > 100 | > 100 µM (inactive) | 
6 | [O-][S+](c1ccc(Cl)cc1)c1ccccc1C1=NCCN1 (stereo unspecified) | > 100 µM (inactive) | > 100 µM (inactive) | > 100 µM (inactive) | > 100 µM (inactive) | > 100 µM (inactive) | > 100 µM (inactive) | > 100 µM (inactive) |  | > 100 µM (inactive) | > 100 µM (inactive) |  | > 100 µM (inactive) | > 100 µM (inactive) | > 100 µM (inactive) | > 100 µM (inactive) | > 100 µM (inactive) | > 100 | > 100 µM (inactive) | 
7 | O=C(O)c1ccc(C2=Nc3cccc4cccc(c34)N2)cc1 | > 100 µM (inactive) | > 100 µM (inactive) | > 100 µM (inactive) | > 100 µM (inactive) | > 100 µM (inactive) | > 100 µM (inactive) | > 100 µM (inactive) |  | > 100 µM (inactive) | > 100 µM (inactive) | > 100 µM (inactive) | > 100 µM (inactive) | > 100 µM (inactive) | > 100 µM (inactive) | > 100 µM (inactive) | 24.7 µM (inactive) | > 100 | > 100 µM (inactive) | 45.6 µM (inactive)
8 | C/C(=N/O)c1cccc(Nc2nc3ccc(Cl)cc3c3[nH]c4ccccc4c23)c1 | 1.38 µM (inactive) | 1.06 µM (active) | 2.02 µM (inactive) | 2.32 µM (inactive) | 3.53 µM (inactive) | 2.44 µM (inactive) | 2.77 µM (inactive) |  | 1.23 µM (inactive) | 0.192 µM (active) | 3.33 µM (inactive) | 1.53 µM (inactive) | 2.59 µM (inactive) | 2.88 µM (inactive) | 1.41 µM (inactive) | 1.34 µM (inactive) | 1.44 | 1.81 µM (inactive) | 
9 | Cc1ccc(C(=O)O)c(CC2Cc3c(C)cccc3C2=O)c1 (stereo unspecified) | > 100 µM (inactive) | > 100 µM (inactive) | > 100 µM (inactive) | > 100 µM (inactive) | > 100 µM (inactive) | > 100 µM (inactive) | > 100 µM (inactive) |  | > 100 µM (inactive) | > 100 µM (inactive) | > 100 µM (inactive) | > 100 µM (inactive) | > 100 µM (inactive) | > 100 µM (inactive) | > 100 µM (inactive) | > 100 µM (inactive) | > 100 | > 100 µM (inactive) | > 100 µM (inactive)
10 | CCOC(=O)c1ccc(C(=O)C(C(C)=O)C(=O)OC(C)(C)C)n1C (stereo unspecified) | > 100 µM (inactive) | > 100 µM (inactive) | > 100 µM (inactive) | > 100 µM (inactive) | > 100 µM (inactive) | > 100 µM (inactive) | > 100 µM (inactive) | > 100 µM (inactive) | > 100 µM (inactive) | > 100 µM (inactive) |  | > 100 µM (inactive) | > 100 µM (inactive) | > 100 µM (inactive) | > 100 µM (inactive) | 71.3 µM (inactive) | > 100 | > 100 µM (inactive) | 
11 | COC(=O)C1(C(=O)OC)C/C(C)=C(/C)SCCCS1 | > 100 µM (inactive) | > 100 µM (inactive) | 43.1 µM (inactive) | > 100 µM (inactive) | 71.9 µM (inactive) | > 100 µM (inactive) | > 100 µM (inactive) |  | > 100 µM (inactive) | 92.7 µM (inactive) | > 100 µM (inactive) | > 100 µM (inactive) | > 100 µM (inactive) | > 100 µM (inactive) | > 100 µM (inactive) | > 100 µM (inactive) | > 100 | > 100 µM (inactive) | 49.5 µM (inactive)
12 | O=C1NC(N2CCCCC2)=N/C1=C\c1ccccc1 | > 100 µM (inactive) | > 100 µM (inactive) |  | > 100 µM (inactive) | > 100 µM (inactive) | > 100 µM (inactive) | > 100 µM (inactive) |  | > 100 µM (inactive) | > 100 µM (inactive) | > 100 µM (inactive) | > 100 µM (inactive) | > 100 µM (inactive) | > 100 µM (inactive) | > 100 µM (inactive) | > 100 µM (inactive) | > 100 | > 100 µM (inactive) | > 100 µM (inactive)
13 | Cc1cc(S(=O)(=O)NC2=NNC(C)CN2)c(S)cc1Cl (stereo unspecified) | 61.8 µM (inactive) | 32.3 µM (inactive) | 27 µM (inactive) | > 100 µM (inactive) | > 100 µM (inactive) | 39.2 µM (inactive) | 48.8 µM (inactive) | 21.6 µM (inactive) | 62.2 µM (inactive) | 53.7 µM (inactive) | 43.9 µM (inactive) | 15.9 µM (inactive) | 62.2 µM (inactive) | 60 µM (inactive) | 46.3 µM (inactive) | 36.9 µM (inactive) | 32.1 | 32.2 µM (inactive) | 
14 | CSc1ncnc2c1cnn2Cc1cnnn1COCC(O)CO (stereo unspecified) | > 100 µM (inactive) | > 100 µM (inactive) | > 100 µM (inactive) | > 100 µM (inactive) | > 100 µM (inactive) | > 100 µM (inactive) | > 100 µM (inactive) | > 100 µM (inactive) | > 100 µM (inactive) | > 100 µM (inactive) | > 100 µM (inactive) | 13.8 µM (inactive) | > 100 µM (inactive) | > 100 µM (inactive) | > 100 µM (inactive) | > 100 µM (inactive) | > 100 | > 100 µM (inactive) | 
15 | CCOC(=O)c1cnc(-n2[nH]c(C)c(CCO)c2=O)[nH]c1=O | > 100 µM (inactive) | > 100 µM (inactive) | > 100 µM (inactive) | > 100 µM (inactive) | > 100 µM (inactive) | > 100 µM (inactive) | > 100 µM (inactive) |  | > 100 µM (inactive) | > 100 µM (inactive) | > 100 µM (inactive) | > 100 µM (inactive) | > 100 µM (inactive) | > 100 µM (inactive) | > 100 µM (inactive) | > 100 µM (inactive) | > 100 | > 100 µM (inactive) | > 100 µM (inactive)
16 | COc1ccc(-c2nc(-c3cc4c(ccc5ccccc54)oc3=O)cs2)cc1 | > 100 µM (inactive) | > 100 µM (inactive) | > 100 µM (inactive) | > 100 µM (inactive) | > 100 µM (inactive) | > 10 µM (inactive) | 73.3 µM (inactive) |  | > 100 µM (inactive) |  | > 100 µM (inactive) | > 100 µM (inactive) | 73.6 µM (inactive) | > 100 µM (inactive) | > 100 µM (inactive) | > 100 µM (inactive) | > 100 | > 100 µM (inactive) | > 100 µM (inactive)
